≈ marks a conversion by molar mass, not a printed value.
Key:
Pseudomonas aeruginosa = experiment: Antibacterial activity against Pseudomonas aeruginosa by twofold dilution method; format: functional
Staphylococcus aureus = experiment: Antibacterial activity against Staphylococcus aureus by twofold dilution method; format: functional
[1] = tested on: Salmonella enterica subsp. enterica; experiment: Antibacterial activity against Salmonella typhi by twofold dilution method; format: functional, Salmonella enterica subsp. enterica serovar Typhi; conditions: Salmonella enterica; read-out: MIC
Escherichia coli = experiment: Antibacterial activity against Escherichia coli by twofold dilution method; format: functional
Candida albicans = experiment: Antifungal activity against Candida albicans by twofold dilution method; format: functional
Candida = experiment: Antifungal activity against Candida 51 by twofold dilution method; format: functional
Rhizopus = experiment: Antifungal activity against Rhizopus sp. by twofold dilution method; format: functional
Aspergillus niger = experiment: Antifungal activity against Aspergillus niger by twofold dilution method; format: functional
Aspergillus flavus = experiment: Antifungal activity against Aspergillus flavus by twofold dilution method; format: functional
Cryptococcus neoformans = experiment: Antifungal activity against Cryptococcus neoformans by twofold dilution method; format: functional
[2] = Pseudomonas aeruginosa, read-out: MIC
[3] = Staphylococcus aureus, read-out: MIC
[4] = Escherichia coli, read-out: MIC
[5] = Candida albicans, read-out: MIC
[6] = Aspergillus niger, read-out: MIC
[7] = Aspergillus flavus, read-out: MIC
[8] = Cryptococcus neoformans, read-out: MIC

SMILES	MIC (Pseudomonas aeruginosa; [2]) [µg/mL]	MIC (Staphylococcus aureus; [3]) [µg/mL]	MIC [1] [µg/mL]	MIC (Escherichia coli; [4]) [µg/mL]	MIC (Candida albicans; [5]) [µg/mL]	MIC (Candida; Candida, 51, read-out: MIC) [µg/mL]	MIC (Rhizopus; Rhizopus, read-out: MIC) [µg/mL]	MIC (Aspergillus niger; [6]) [µg/mL]	MIC (Aspergillus flavus; [7]) [µg/mL]	MIC (Cryptococcus neoformans; [8]) [µg/mL]	MIC (Pseudomonas aeruginosa) [µg/mL]	MIC (Staphylococcus aureus) [µg/mL]	MIC (Escherichia coli) [µg/mL]	MIC (Candida albicans) [µg/mL]	MIC (Candida) [µg/mL]	MIC (Rhizopus) [µg/mL]	MIC (Aspergillus niger) [µg/mL]	MIC (Aspergillus flavus) [µg/mL]	MIC (Cryptococcus neoformans) [µg/mL]
CC1/C(=N/OCc2ccccc2)CC(c2ccc(Cl)cc2)NC1c1ccc(Cl)cc1 (configuration not stated)	25 (≈ 56.9 µM)	50 (≈ 114 µM)	50 (≈ 114 µM)	50 (≈ 114 µM)	25 (≈ 56.9 µM)	50 (≈ 114 µM)	100 (≈ 228 µM)	50 (≈ 114 µM)	50 (≈ 114 µM)	50 (≈ 114 µM)									
COc1ccc(C2C/C(=N\OCc3ccccc3)C(C)C(c3ccc(OC)cc3)N2)cc1 (configuration not stated)	50 (≈ 116 µM)	25 (≈ 58.1 µM)	25 (≈ 58.1 µM)	50 (≈ 116 µM)	25 (≈ 58.1 µM)	12.5 (≈ 29 µM)	25 (≈ 58.1 µM)	50 (≈ 116 µM)	50 (≈ 116 µM)	25 (≈ 58.1 µM)									
CCC1/C(=N/OCc2ccccc2)CC(c2ccccc2)NC1c1ccccc1 (configuration not stated)	100 (≈ 260 µM)	25 (≈ 65 µM)	50 (≈ 130 µM)	100 (≈ 260 µM)	100 (≈ 260 µM)	100 (≈ 260 µM)	50 (≈ 130 µM)	50 (≈ 130 µM)	> 200	200 (≈ 520 µM)									
c1ccc(CON=C2CC(c3ccccc3)NC(c3ccccc3)C2)cc1 (configuration not stated)	200 (≈ 561 µM)	> 200	100 (≈ 281 µM)	> 200	200 (≈ 561 µM)	200 (≈ 561 µM)	> 200	> 200	200 (≈ 561 µM)	> 200									
CC1/C(=N/OCc2ccccc2)CC(c2ccccc2)NC1c1ccccc1 (configuration not stated)	200 (≈ 540 µM)	200 (≈ 540 µM)	100 (≈ 270 µM)	200 (≈ 540 µM)	100 (≈ 270 µM)	200 (≈ 540 µM)	200 (≈ 540 µM)	200 (≈ 540 µM)	100 (≈ 270 µM)	> 200									
Clc1ccc(C2CC(=NOCc3ccccc3)CC(c3ccc(Cl)cc3)N2)cc1 (configuration not stated)	50 (≈ 118 µM)	50 (≈ 118 µM)	100 (≈ 235 µM)	50 (≈ 118 µM)	50 (≈ 118 µM)	200 (≈ 470 µM)	> 200	50 (≈ 118 µM)	200 (≈ 470 µM)	100 (≈ 235 µM)									
COc1ccc(C2NC(c3ccc(OC)cc3)C(C)C(=NOCc3ccccc3)C2C)cc1 (configuration not stated)	50 (≈ 112 µM)	25 (≈ 56.2 µM)	25 (≈ 56.2 µM)	25 (≈ 56.2 µM)	12.5 (≈ 28.1 µM)	6.25 (≈ 14.1 µM)	25 (≈ 56.2 µM)	25 (≈ 56.2 µM)	100 (≈ 225 µM)	12.5 (≈ 28.1 µM)									
CCC1/C(=N\OCc2ccccc2)CC(c2ccccc2)OC1c1ccccc1 (configuration not stated)	100 (≈ 259 µM)	200 (≈ 519 µM)	100 (≈ 259 µM)	50 (≈ 130 µM)	100 (≈ 259 µM)	100 (≈ 259 µM)	100 (≈ 259 µM)	200 (≈ 519 µM)	100 (≈ 259 µM)	50 (≈ 130 µM)									
Cc1ccc(C2C/C(=N\OCc3ccccc3)C(C)C(c3ccc(C)cc3)N2)cc1 (configuration not stated)	50 (≈ 125 µM)	50 (≈ 125 µM)	100 (≈ 251 µM)	100 (≈ 251 µM)	50 (≈ 125 µM)	50 (≈ 125 µM)	25 (≈ 62.7 µM)	100 (≈ 251 µM)	100 (≈ 251 µM)	100 (≈ 251 µM)									
COc1ccc(C2OC(c3ccc(OC)cc3)C(C)C(=NOCc3ccccc3)C2C)cc1 (configuration not stated)	25 (≈ 56.1 µM)	50 (≈ 112 µM)	50 (≈ 112 µM)	25 (≈ 56.1 µM)	50 (≈ 112 µM)	12.5 (≈ 28.1 µM)	25 (≈ 56.1 µM)	50 (≈ 112 µM)	100 (≈ 224 µM)	6.25 (≈ 14 µM)									
CCOC(=O)C1/C(=N/OCc2ccccc2)CC(c2ccccc2)NC1c1ccccc1 (configuration not stated)	50 (≈ 117 µM)	200 (≈ 467 µM)	200 (≈ 467 µM)	100 (≈ 233 µM)	50 (≈ 117 µM)	100 (≈ 233 µM)	200 (≈ 467 µM)	200 (≈ 467 µM)	100 (≈ 233 µM)	100 (≈ 233 µM)									
CC(C)C1/C(=N/OCc2ccccc2)CC(c2ccccc2)NC1c1ccccc1 (configuration not stated)	200 (≈ 502 µM)	> 200	100 (≈ 251 µM)	100 (≈ 251 µM)	50 (≈ 125 µM)	200 (≈ 502 µM)	50 (≈ 125 µM)	200 (≈ 502 µM)	200 (≈ 502 µM)	100 (≈ 251 µM)									
COc1ccc([C@@H]2CC(=NOCc3ccccc3)C[C@@H](c3ccc(OC)cc3)S2)cc1	25 (≈ 57.7 µM)	50 (≈ 115 µM)	50 (≈ 115 µM)	50 (≈ 115 µM)	25 (≈ 57.7 µM)	25 (≈ 57.7 µM)	50 (≈ 115 µM)	25 (≈ 57.7 µM)	25 (≈ 57.7 µM)	12.5 (≈ 28.8 µM)									
COc1ccc(C2CC(=NOCc3ccccc3)CC(c3ccc(OC)cc3)N2)cc1 (configuration not stated)	50 (≈ 120 µM)	50 (≈ 120 µM)	50 (≈ 120 µM)	100 (≈ 240 µM)	100 (≈ 240 µM)	50 (≈ 120 µM)	50 (≈ 120 µM)	100 (≈ 240 µM)	100 (≈ 240 µM)	100 (≈ 240 µM)									
CC1/C(=N\OCc2ccccc2)CC(c2ccccc2)OC1c1ccccc1 (configuration not stated)	100 (≈ 269 µM)	100 (≈ 269 µM)	200 (≈ 538 µM)	100 (≈ 269 µM)	100 (≈ 269 µM)	100 (≈ 269 µM)	200 (≈ 538 µM)	200 (≈ 538 µM)	200 (≈ 538 µM)	100 (≈ 269 µM)									
Cc1ccc(C2CC(=NOCc3ccccc3)CC(c3ccc(C)cc3)N2)cc1 (configuration not stated)	50 (≈ 130 µM)	200 (≈ 520 µM)	100 (≈ 260 µM)	200 (≈ 520 µM)	200 (≈ 520 µM)	100 (≈ 260 µM)	100 (≈ 260 µM)	200 (≈ 520 µM)	100 (≈ 260 µM)	200 (≈ 520 µM)									
c1ccc(CO/N=C2\C[C@@H](c3ccccc3)S[C@@H](c3ccccc3)C2)cc1 (relative stereo)	200 (≈ 535 µM)	> 200	100 (≈ 268 µM)	200 (≈ 535 µM)	> 200	200 (≈ 535 µM)	200 (≈ 535 µM)	100 (≈ 268 µM)	> 200	> 200									
Cc1ccc([C@@H]2CC(=NOCc3ccccc3)C[C@@H](c3ccc(C)cc3)S2)cc1 (relative stereo)	100 (≈ 249 µM)	100 (≈ 249 µM)	100 (≈ 249 µM)	50 (≈ 125 µM)	50 (≈ 125 µM)	200 (≈ 498 µM)	50 (≈ 125 µM)	100 (≈ 249 µM)	100 (≈ 249 µM)	50 (≈ 125 µM)									
c1ccc(CON=C2C[C@@H](c3ccccc3)S[C@H](c3ccccc3)C2)cc1 (relative stereo)	> 200	> 200	200 (≈ 535 µM)	200 (≈ 535 µM)	200 (≈ 535 µM)	> 200	> 200	200 (≈ 535 µM)	100 (≈ 268 µM)	200 (≈ 535 µM)									
Cc1ccc(C2OC(c3ccc(C)cc3)C(C)C(=NOCc3ccccc3)C2C)cc1 (stereo in doubt; 7d2)											25 (≈ 60.5 µM)	25 (≈ 60.5 µM)	50 (≈ 121 µM)	6.25 (≈ 15.1 µM)	6.25 (≈ 15.1 µM)	25 (≈ 60.5 µM)	50 (≈ 121 µM)	25 (≈ 60.5 µM)	25 (≈ 60.5 µM)
C[C@@H]1[C@H](O)[C@@H](C)/C=C/C=C/C=C/C=C/C=C/C=C/C=C/[C@H](O[C@@H]2O[C@H](C)[C@@H](O)[C@H](N)[C@@H]2O)C[C@@H]2O[C@](O)(C[C@@H](O)C[C@@H](O)[C@H](O)CC[C@@H](O)C[C@@H](O)CC(=O)O[C@H]1C)C[C@H](O)[C@H]2C(=O)O [AMPHOTERICIN B]					25 (≈ 27.1 µM)	25 (≈ 27.1 µM)	25 (≈ 27.1 µM)	50 (≈ 54.1 µM)	50 (≈ 54.1 µM)	25 (≈ 27.1 µM)									
O=C(O)c1cn(C2CC2)c2cc(N3CCNCC3)c(F)cc2c1=O [CIPROFLOXACIN]			50 (≈ 151 µM)	25 (≈ 75.4 µM)															

Reference: ChEMBL document CHEMBL1158420, “Synthesis, spectral, crystal and antimicrobial studies of biologically potent oxime ethers of nitrogen, oxygen and sulfur heterocycles” (2009)
